This is an account of results in US20240294551A1 (AMGEN INC., priority 2022, published 2024).

For test [1], the target named is His-tagged KRAS G12D protein (Homo sapiens (Human), UniProt P01116, G12D). As to the kind of experiment: KRAS G12D TR-FRET Assay. Type of test: binding. In short, it runs like this:
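Each incubation ran at room temperature: enzyme with compound for 30 minutes, peptide for one hour, and detection reagents (0.4 nM europium anti-6×His, 5 nM streptavidin-d2) for one hour more. Protein and peptide stocks were each diluted to 20 nM before addition.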

The target in test [2] is GDP-bound KRAS protein (aa 1-169), containing both G12D and C118A amino acid substitutions (Homo sapiens (Human), UniProt P01116, C118A/G12D). As to the kind of experiment: KRAS G12D Coupled Nucleotide Exchange Assay. The format is biochemical.
Test [3] has as its system Phosphorylation of ERK1/2 in AsPC-1 cells. As to the kind of experiment: Phospho-ERK1/2 MSD Assay. The format is cell-based, human. An outline of the steps: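 Read-out: MSD electrochemiluminescent detection of phosphorylated ERK1/2 in whole-cell lysates, fitted to a 4-parameter logistic curve for IC50. Prior to lysis, AsPC-1 cells (25,000 per well) received a 2 h compound dose-response at 37 °C.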

For the next test, the system named is AsPC-1 cells. As to the kind of experiment: AsPC-1 CTG Assay (CellTiter-Glo cell viability). The format is cell-based, human. Particulars: first value of the cell, read-out: G12D/C/V Cell Proliferation CTG (72 h) AsPC-1. An outline of the steps: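 IC50 values derive from 4-parameter logistic fits of CellTiter-Glo luminescence, expressed relative to DMSO. Compound dilution series were applied to overnight-seeded AsPC-1 or SW620 cells (RPMI 1640, 10% FBS) for 72 h at 37 °C, 5% CO2.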

The test system of the next test is MIA PaCa-2 cells. As to the kind of experiment: MIA PaCa-2 CTG Assay (CellTiter-Glo cell viability). Type of test: cell-based, human. Conditions: Homo sapiens, second value of the cell. Here is the method: MIA PaCa-2 CTG Assay Protocol
MIA PaCa-2 (human pancreatic carcinoma; ATCC CRL-1420) cells were cultured in RPMI 1640 medium containing 10% fetal bovine serum and 1× penicillin/streptomycin/L-glutamine. Cells were seeded in 384-well plates at a density of 1.67E+04 cells/mL and incubated at 37° C., 5% CO2, overnight. Serially-diluted compound or DMSO was added to the cells, and plates were incubated at 37° C., 5% CO2 for 72 h. Cell viability was measured using a CellTiter-Glo® Luminescent Cell Viability Assay kit (Promega) according to the manufacturer's protocol. The luminescence signal of treated samples was normalized to DMSO control, and data were analyzed using a 4-parameter logistic model to calculate IC50 values.

Setting [4] is: read-out: KRAS G12D Binding IC50.
Where [5] appears, read: read-out: KRAS G12D Coupled Exchange IC50.
Where [6] appears, read: Homo sapiens, ASPC1, 2 h, read-out: 2 h p-ERK (AsPC-1 cells), IC50.
The mark [7] stands for this setting: Homo sapiens, ASPC1, 72 h, AsPC-1, 72 h.
[8] abbreviates: Mia PaCa-2, 72 h, read-out: G12D/C/V Cell Proliferation CTG (72 h) Mia PaCa-2.
[9] abbreviates: 2 h, read-out: 2 h p-ERK (AsPC-1 cells), IC50.
The mark [10] stands for this setting: Homo sapiens, ASPC1, 2 h, read-out: 2 h p-ERK (AsPC-1 cells).

Like-named read-outs stand apart in the source and are kept apart here.

Turning to `C[C@@]12CCCCN(C1)c1nc(OC[C@@]34CCCN3C[C@H](F)C4)nc3c(F)c(ncc13)-c1c(c(Cl)cc3[nH]ncc13)CCC[C@H](F)C(=O)N2` (mixture of isomers) [Example 281, (23RS,26R)-18-chloro-23,32-difluoro-4-(((2R,7aS)-2-fluorotetrahydro-1H-pyrrolo[1,2-a]pyrrol-7a(5H)-yl)methoxy)-26-methyl-1,3,5,9,14,15,25-heptaazahexacyclo[24.4.1.1~6,10~.0~2,7~.0~11,19~.0~12,16~]dotriaconta-2,4,6,8,10(32),11,13,16,18-nonaen-24-one], the IC50 stood at 5 nM in test [1] (setting [4]); 2 nM in test [2] (setting [5]); 7.9 nM in test [3] (setting [6]); 104 nM in the test with AsPC-1 cells (setting [7]); 90 nM in the test on MIA PaCa-2 cells (setting [8]).
As for `CO[C@@H]1C[C@@H](COc2nc3c4cnc(c(F)c4n2)-c2c(c(Cl)cc4[nH]ncc24)CCOC(=O)OC2CC4(CCCN3C4)C2)N(C)C1` (mixture of isomers) [Example 307], the IC50 in test [1] (setting [4]) came out at 4 nM; in test [2] (setting [5]), 2 nM; in test [3] (setting [6]) it was 12 nM; with AsPC-1 cells (setting [7]), 134 nM; in the test on MIA PaCa-2 cells (setting [8]), 62 nM.
The like results for `O=C1OC/C=C\c2c(Cl)cc3[nH]ncc3c2-c2ncc3c(nc(OC[C@@]45CCCN4C[C@H](F)C5)nc3c2F)N2CCC[C@H](C2)O1` (single isomer, unassigned) [Example 122] were, in that order, 5 nM, 3 nM, 8 nM, 250 nM and 100 nM.
As for `Cc1cc2[nH]ncc2c2c1CCCC(F)C(=O)N[C@@H]1CCCCN(C1)c1nc(OC[C@@]34CCCN3C[C@H](F)C4)nc3c(F)c-2ncc13` (single isomer, unassigned) [Example 160], the IC50 in test [1] (setting [4]) amounted to 4 nM; in test [2] (setting [5]), 3 nM; in test [3] (setting [9]), 71.8 nM; in the test on AsPC-1 cells (setting [7]), 587 nM; in the test on MIA PaCa-2 cells (setting [8]) it was 420 nM.
As to `Cc1cc2[nH]ncc2c2c1[C@H]1C[C@H]1CCOC[C@H]1CN(CCO1)c1nc(OC[C@@]34CCCN3C[C@H](F)C4)nc3c(F)c-2ncc13` (single isomer, unassigned) [Example 226], the IC50 was 7 nM in test [1] (setting [4]); 5 nM in test [2] (setting [5]); 77.8 nM in test [3] (setting [6]); 412 nM in the test on AsPC-1 cells (setting [7]); 130 nM in the test with MIA PaCa-2 cells (setting [8]).
Regarding `Fc1c2ncc3c(nc(OC[C@@]45CCCN4C[C@H](F)C5)nc13)N1CCO[C@]3(C1)C[C@@H](C3)OCCCCc1c(Cl)cc3[nH]ncc3c1-2` (single isomer, unassigned) [Example 261], the IC50 worked out at 6 nM in test [1] (setting [4]); 5 nM in test [2] (setting [5]); 40.2 nM in test [3] (setting [6]); 270 nM in the test on AsPC-1 cells (setting [7]); 28 nM in the test with MIA PaCa-2 cells (setting [8]).
In the case of `Fc1c2ncc3c(nc(OC[C@@]45CCCN4C[C@H](F)C5)nc13)N1CCC[C@@H](CSCCCCc3c(Cl)cc4[nH]ncc4c3-2)C1` [Example 143], the IC50 in test [3] (setting [6]) was determined as 109 nM; with AsPC-1 cells (setting [7]), 980 nM; in the test with MIA PaCa-2 cells (setting [8]), 480 nM.
Take `Cc1cc2[nH]ncc2c2c1CCCOC(=O)O[C@@H]1COCCN(C1)c1nc(OC[C@@]34CCCN3C[C@H](F)C4)nc3c(F)c-2ccc13` [Example 192, (26S)-32-fluoro-4-(((2R,7aS)-2-fluorotetrahydro-1H-pyrrolo[1,2-a]pyrrol-7a(5H)-yl)methoxy)-18-methyl-23,25,28-trioxa-1,3,5,14,15-pentaazahexacyclo[24.4.1.1~6,10~.0~2,7~.0~11,19~.0~12,16~]dotriaconta-2,4,6,8,10(32),11,13,16,18-nonaen-24-one]: the IC50 in test [3] (setting [6]) is 21.8 nM; in the test on AsPC-1 cells (setting [7]), 375 nM; in the test on MIA PaCa-2 cells (setting [8]), 67 nM.
Take `C[C@@]12COCCN(C1)c1nc(OC[C@@]34CCCN3C[C@H](F)C4)nc3c(F)c(ncc13)-c1cccc(Cl)c1CCCOC(=O)O2` [Example 200, (23S)-15-chloro-29-fluoro-4-(((2R,7aS)-2-fluorotetrahydro-1H-pyrrolo[1,2-a]pyrrol-7a(5H)-yl)methoxy)-23-methyl-20,22,25-trioxa-1,3,5,9-tetraazapentacyclo[21.4.1.1~6,10~.0~2,7~.0~11,16~]nonacosa-2,4,6,8,10(29),11,13,15-octaen-21-one]: the IC50 was found to be 10 nM in test [1] (setting [4]), 4 nM in test [2] (setting [5]), 262 nM in test [3] (setting [6]) and 320 nM in the test with MIA PaCa-2 cells (setting [8]).
As for `Fc1c2ncc3c(nc(OC[C@@]45CCCN4C[C@H](F)C5)nc13)N1CCC[C@H](C1)c1coc(n1)CCCc1c(Cl)cc3[nH]ncc3c1-2` [Example 246, (18R)-9-chloro-31-fluoro-25-(((2R,7aS)-2-fluorotetrahydro-1H-pyrrolo[1,2-a]pyrrol-7a(5H)-yl)methoxy)-15-oxa-5,6,22,24,26,30,33-heptaazaheptacyclo[25.3.1.1~14,17~.1~18,22~.0~2,10~.0~3,7~.0~23,28~]tritriaconta-1(31),2,4,7,9,14(33),16,23,25,27,29-undecaene], the IC50 came out at 10.1 nM in test [3] (setting [9]); 112 nM with AsPC-1 cells (AsPC-1, 72 h); 82 nM in the test on MIA PaCa-2 cells (setting [8]).
As to `C[C@@]12COCCN(C1)c1nc(OC[C@@]34CCCN3C[C@H](F)C4)nc3c(F)c(ncc13)-c1cccc3ccc(F)c(c13)CCOC(=O)O2` [Example 304, (16S)-23,32-difluoro-8-(((2R,7aS)-2-fluorotetrahydro-1H-pyrrolo[1,2-a]pyrrol-7a(5H)-yl)methoxy)-16-methyl-14,17,19-trioxa-3,7,9,11-tetraazahexacyclo[20.7.1.1~2,6~.1~11,16~.0~5,10~.0~26,30~]dotriaconta-1(30),2(32),3,5,7,9,22,24,26,28-decaen-18-one], the IC50 in test [1] (setting [4]) came out at 15 nM; in test [2] (setting [5]) it was 4 nM; in test [3] (setting [6]), 103 nM; in the test on MIA PaCa-2 cells (setting [8]), 380 nM.
Turning to `Fc1c2ncc3c(nc(OC[C@@]45CCCN4C[C@H](F)C5)nc13)N1CCOC[C@H](C1)c1noc(n1)CCCc1c(Cl)cc3[nH]ncc3c1-2` [Example 381], the IC50 came out at 10.4 nM in test [3] (setting [10]) and 12 nM in the test with MIA PaCa-2 cells (MIA PaCa-2 cells (G12C), 72 h, read-out: G12D/C/V Cell Proliferation CTG (72 h) MIA PaCa-2).
As to `O[C@H]1C[C@H]2COCCCCc3c(Cl)cc4[nH]ncc4c3-c3ncc4c(nc(OC[C@@]56CCCN5C[C@H](F)C6)nc4c3F)N(C1)C2` [Example 407, (17R,19S)-9-chloro-30-fluoro-24-(((2R,7aS)-2-fluorotetrahydro-1H-pyrrolo[1,2-a]pyrrol-7a(5H)-yl)methoxy)-15-oxa-5,6,21,23,25,29-hexaazahexacyclo[24.3.1.1˜17,21˜.0˜2,10˜.0˜3,7˜.0˜22,27˜]hentriaconta-1(30),2,4,7,9,22,24,26,28-nonaen-19-ol], the IC50 stood at 6 nM in test [1] (TR-FRET, read-out: KRAS G12D Binding); 1 nM in test [2] (2 hours compound pre-incubation, read-out: KRAS G12D Coupled Exchange); 2.5 nM in test [3] (setting [10]); 49 nM with AsPC-1 cells (Homo sapiens, ASPC1, 72 h, AsPC-1 cells (G12D), 72 h).
Take “(15R)-22,31-Difluoro-8-(((2R,7aS)-2-fluorotetrahydro-1H-pyrrolo[1,2-a]pyrrol-7a(5H)-yl)methoxy)-27-hydroxy-15-methyl-16-oxa-3,7,9,11-tetraazahexacyclo[19.7.1.1˜2,6˜.1˜11,15˜0.0˜5,10˜.0˜25,29˜]hentriaconta-1(28),2(31),3,5,7,9,21,23,25(29),26-decaen-17-one bis(2,2,2-trifluoroacetate) [Example 43]”: the IC50 in test [1] (setting [4]) came out at 4 nM; in test [2] (setting [5]) it was 2 nM; in test [3] (setting [9]), 13 nM; in the test on AsPC-1 cells (AsPC-1, 72 h), 92 nM.
